Experimental data: US11597933B2, “Combination therapy of lymphoma” (The Trustees of Columbia University in the City of New York, priority 2017, dated 2023)
Read-outs that look alike come from different tables or passages of the source.

Legend:
Riva = experiment: Cell viability assay, Riva; type: cell-based
Excerpt: (§1) OCI-LY1, SU-DHL-2, SU-DHL-6, Pfeiffer, Farage, Toledo, Riva, HBL-1, Jeko-1, Z-138, H9, and HH were obtained from ATCC. OCI-LY7, OCI-LY10, SU-DHL-10 and OCI-LY3 were obtained from DSMZ. PF382, and P12 were a gift from the laboratory of Adolfo Fernando. TLOM-1 and MT-1 were obtained from Kyoto University; and MT-2 was obtained from Memorial Sloan Kettering Cancer Center. All cell lines were authenticated and screened for mycoplasma using the ATCC/Promega STR Authentication Testing Kit and Lonza MycoAlert.
(§2) Synergy was assessed by excess over bliss (EOB). […] Criteria for analyzing interactions between biologically active agents. Advances in cancer research 1981; 35:269-335.
(§3) To understand the effects of EZH2 inhibition and HDAC inhibition in cell lines with or without EZH2 dysfunction and HAT mutations, a panel of 21 lymphoma cell lines were exposed to GSK126, an EZH2 inhibitor, and romidepsin, a pan-HDAC inhibitor, as single agents. Both B-cell and TCL were selected in order to establish a range of drug sensitivity and mutational status. EZH2 status and HAT mutational status were confirmed.

RbAp 46/48 (RBBP4) = experiment: Acetyl-lysine immunoprecipitation and mass spectrometry; type: cell-based; conditions: SU-DHL-10 cells, acetyl-lysine antibody IP, compared to control, FDR<1.0%
Procedure: Immunoprecipitation was performed using Thermo Scientific™ Pierce™ MS-Compatible Magnetic IP Kit (#84840). Protein was incubated with EZH2 or acetylated-lysine antibody. Antibody bound proteins were eluted and run into SDS PAGE. The excised gel lane pieces were reduced, alkylated, and digested in Trypsin Gold (Promega) digestion buffer (Thermo Fischer Scientific). Condensed evaporated water was collected by brief centrifugation using microcentrifuge (Eppendorf). The gel pieces and digestion reaction were mixed with 2.5% Trifluoretic Acids (TFA, Thermo Fischer Scientific). Peptides were extracted with 70% acetonitrile (ACN/5% TFA mixture) (Thermo Fischer Scientific). The extracts were pooled and dried to completion in SpeedVac.
The concentrated peptide mix was reconstituted in a solution of 2% ACN, 2% formic acid (FA) for MS analysis. Peptides were eluted from the column using a Dionex Ultimate 3000 Nano LC system. Using Thermo Fusion Tribrid mass spectrometer (Thermo Scientific), eluted peptides were electro sprayed. Mass spectrometer-scanning functions and HPLC gradients were controlled by the Xcalibur data system (Thermo Fischer).
Tandem mass spectra from raw files were searched against uniprot_human_170129.fasta data base using the Proteome Discoverer 2.1 (Thermo Fischer). The […] protein database was downloaded as FASTA-formatted sequences from Uniprot protein database (January 2017). […]

OCI-LY7 = experiment: Cell viability assay, OCI-LY7; type: cell-based
Excerpt: as §1, §2, §3

SU-DHL-10 = experiment: Cell viability assay, SU-DHL-10; type: cell-based
Excerpt: as §1, §2, §3

PF-382 = experiment: Cell viability assay, PF-382; type: cell-based
Excerpt: as §1, §2, §3

SU-DHL-2 = experiment: Cell viability assay, SU-DHL-2; type: cell-based
Excerpt: as §1, §2, §3

HH = experiment: Cell viability assay, HH; type: cell-based
Excerpt: as §1, §2, §3

MT-2 = experiment: Cell viability assay, MT-2; type: cell-based
Excerpt: as §1, §2, §3

MT-1 = experiment: Cell viability assay, MT-1; type: cell-based
Excerpt: as §1, §2, §3

TLOM-1 = experiment: Cell viability assay, TLOM-1; type: cell-based
Excerpt: as §1, §2, §3

OCI-LY3 = experiment: Cell viability assay, OCI-LY3; type: cell-based
Excerpt: as §1, §2, §3

Farage = experiment: Cell viability assay, Farage; type: cell-based
Excerpt: as §1, §2, §3

[1] = Pharmacokinetic analysis of serum and tumor samples; conditions: single exposure to GSK126 and romidepsin, over 24 hours
Procedure: (§4) F. Serum romidepsin pharmacokinetic parameters after single injection of GSK and romidepsin over 24 hours.

OCI-LY1 = experiment: Cell viability assay, OCI-LY1; type: cell-based
Excerpt: as §1, §2, §3

in vivo = conditions: mouse, serum, ip
Procedure: as §4

OCI-LY10 = experiment: Cell viability assay, OCI-LY10; type: cell-based
Excerpt: as §1, §2, §3

H9 = experiment: Cell viability assay, H9; type: cell-based
Excerpt: as §1, §2, §3

Pfeiffer = experiment: Cell viability assay, Pfeiffer; type: cell-based; conditions: for IC50: Pfeiffer
Excerpt: as §1, §2, §3

Z-138 = experiment: Cell viability assay, Z-138; type: cell-based
Excerpt: as §1, §2, §3

HBL-1 = experiment: Cell viability assay, HBL-1; type: cell-based
Excerpt: as §1, §2, §3

P12 = experiment: Cell viability assay, P12; type: cell-based
Excerpt: as §1, §2, §3

Jeko-1 = experiment: Cell viability assay, Jeko-1; type: cell-based
Excerpt: as §1, §2, §3

SU-DHL-6 = experiment: Cell viability assay, SU-DHL-6; type: cell-based
Excerpt: as §1, §2, §3

Toledo = experiment: Cell viability assay, Toledo; type: cell-based
Excerpt: as §1, §2, §3

HEK 293T cells = experiment: H3K27 acetylation and methylation in HEK 293T cells; type: cell-based; conditions: single agent exposure in HEK 293T cells
[2] = mouse, in vivo
Procedure: as §4

[3] = tested on: R/R DLBCL or follicular lymphoma (FL); conditions: 800 mg BID, cited from earlier work
[4] = 72 h, read-out: IC50 Romidespin
[5] = Homo sapiens, 72 h, read-out: IC50 Romidespin
[6] = GC-DLBCL, EZH2 Wildtype, 144 hours, read-out: IC50 GSK126

C/C=C1\NC(=O)[C@H]2CSSCC/C=C/[C@H](CC(=O)N[C@H](C(C)C)C(=O)N2)OC(=O)[C@H](C(C)C)NC1=O [romidepsin]
IC50 (Riva; [4]): 1.5 nM | increase of RbAp 46/48 (RBBP4) estimated by spectral counts (RbAp 46/48 (RBBP4)): 2 fold | IC50 (OCI-LY7; Homo sapiens, OCI-Ly7, 72 h, read-out: IC50 Romidespin): 1.5 nM | IC50 (SU-DHL-10; Homo sapiens, SU-DHL10, 72 h, read-out: IC50 Romidespin, SU-DHL-10, GC-DLBCL, EP300 mis mut/CREBBP trunc mut, 72-hour exposure): 2.59 nM | IC50 (SU-DHL-10; read-out: IC50 Romidespin, SU-DHL-10, GC-DLBCL, EP300 mis mut/CREBBP trunc mut, 72-hour exposure): 2.1 nM | IC50 (PF-382; Homo sapiens, PF-382, 72 h, read-out: IC50 Romidespin): 3.5 nM | IC50 (SU-DHL-2; Homo sapiens, SU-DHL-2, 72 h, read-out: IC50 Romidespin): 1.3 nM | IC50 (HH; [5]): 1.1 nM | IC50 (MT-2; Homo sapiens, MT2, 72 h, read-out: IC50 Romidespin): 2.7 nM | IC50 (MT-1; [4]): 2.8 nM | IC50 (TLOM-1; [4]): 4.3 nM | IC50 (OCI-LY3; Homo sapiens, OCI-Ly3, 72 h, read-out: IC50 Romidespin): 1.7 nM | IC50 (Farage; [4]): 1.7 nM | intratumor concentration [1]: below the level of detection | IC50 (OCI-LY1; Homo sapiens, OCI-Ly1, 72 h, read-out: IC50 Romidespin): 2.5 nM | Cmax (in vivo): 25.1 ng/mL | IC50 (OCI-LY10; Homo sapiens, OCI-Ly10, 72 h, read-out: IC50 Romidespin): 1 nM | IC50 (H9; Homo sapiens, H9, 72 h, read-out: IC50 Romidespin): 1.3 nM | IC50 (Pfeiffer; [5]): 6 nM | IC50 (Z-138; Homo sapiens, Z-138, 72 h, read-out: IC50 Romidespin): 1.1 nM | IC50 (HBL-1; HBL1, 72 h, read-out: IC50 Romidespin): 1 nM | IC50 (P12; P12, 72 h, read-out: IC50 Romidespin): 4.3 nM | IC50 (Jeko-1; Homo sapiens, JeKo-1, 72 h, read-out: IC50 Romidespin): 1.1 nM | IC50 (SU-DHL-6; Homo sapiens, SU-DHL-6, 72 h, read-out: IC50 Romidespin): 2 nM | IC50 (Toledo; [5]): 1 nM

CCN(c1cc(C#CCN2CCOCC2)cc(C(=O)NCc2c(C)cc(C)[nH]c2=O)c1C)[C@H]1CC[C@H](N(C)CCOC)CC1 [EPZ011989]
sensitivity, cell viability curve (Pfeiffer; Pfeiffer (GC-DLBCL), single agent): potent sensitivity

CC[C@H](C)n1cc(C)c2c(C(=O)NCc3c(C)cc(C)[nH]c3=O)cc(-c3ccc(N4CCNCC4)nc3)cc21 [GSK126]
IC50 (Riva; Riva, ABC-DLBCL, EZH2 Wildtype, 144 hours, read-out: IC50 GSK126): 7500 nM | IC50 (OCI-LY7; OCI-LY7, GC-DLBCL, EZH2 Wildtype, 144 hours, read-out: IC50 GSK126): 4300 nM | IC50 (SU-DHL-10; SU-DHL-10, GC-DLBCL, EZH2 Y641F, Y646S, 144 hours, read-out: IC50 GSK126): 700 nM | IC50 (PF-382; PF-382, T-ALL, EZH2 Wildtype, 144 hours, read-out: IC50 GSK126): 5600 nM | IC50 (SU-DHL-2; SU-DHL-2, ABC-DLBCL, EZH2 Wildtype, 144 hours, read-out: IC50 GSK126): 4400 nM | IC50 (HH; CTCL, EZH2 Wildtype, 144 hours, read-out: IC50 GSK126): 4400 nM | status of acetylation or methylation of H3K27 (HEK 293T cells): did not significantly change | Cmax [2]: 3.15 µM | serum AUC0-last [2]: 2828.57 ng·h/mL | Cmax ([2]; ip): 1657.5 ± 413.6 ng/mL | IC50 (MT-2; MT-2, ATLL, EZH2 Overexpression, 144 hours, read-out: IC50 GSK126): 9000 nM | IC50 (MT-1; MT-1, ATLL, EZH2 Overexpression, 144 hours, read-out: IC50 GSK126): 4400 nM | IC50 (TLOM-1; TLOM-1, ATLL, EZH2 Overexpression, 144 hours, read-out: IC50 GSK126): 1500 nM | IC50 (OCI-LY3; OCI-LY3, ABC-DLBCL, EZH2 Wildtype, 144 hours, read-out: IC50 GSK126): 7200 nM | IC50 (Farage; [6]): 10000 nM | IC50 (OCI-LY1; OCI-LY1, GC-DLBCL, EZH2 Y602N, Y646N, 144 hours, read-out: IC50 GSK126): 3700 nM | IC50 (OCI-LY10; OCI-LY10, ABC-DLBCL, EZH2 Wildtype, 144 hours, read-out: IC50 GSK126): 6400 nM | IC50 (H9; H9, CTCL, EZH2 Wildtype, 144 hours, read-out: IC50 GSK126): 6100 nM | IC50 (Pfeiffer; GC-DLBCL, EZH2 A677G, 144 hours, read-out: IC50 GSK126): 100 nM | IC50 (Z-138; Z-138, Mantle Cell, EZH2 Overexpression, 144 hours, read-out: IC50 GSK126): 7100 nM | IC50 (HBL-1; HBL-1, ABC-DLBCL, EZH2 Wildtype, 144 hours, read-out: IC50 GSK126): 4200 nM | IC50 (P12; P12, T-ALL, EZH2 Wildtype, 144 hours, read-out: IC50 GSK126): 6000 nM | IC50 (Jeko-1; Jeko-1, Mantle Cell, EZH2 Overexpression, 144 hours, read-out: IC50 GSK126): 10000 nM | IC50 (SU-DHL-6; SU-DHL-6, GC-DLBCL, EZH2 Y602N, Y646N, 144 hours, read-out: IC50 GSK126): 3100 nM | IC50 (Toledo; [6]): 6000 nM

CCN(c1cc(-c2ccc(CN3CCOCC3)cc2)cc(C(=O)NCc2c(C)cc(C)[nH]c2=O)c1C)C1CCOCC1 [tazemetostat]
tolerability ([3]; preliminary results): well tolerated | treatment related emergent adverse events: anemia [3]: 10% | treatment related emergent adverse events: nausea [3]: 14% | treatment related emergent adverse events: thrombocytopenia [3]: 13%
